In ChEMBL document CHEMBL1201862, “PubChem BioAssay data set” (2004):
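1) Cells in 96-well plates. 2) Compound, 48 h, 5 concentrations. 3) Linear interpolation between surrounding doses. 4) Unreached endpoint = highest concentration. Here, GI50 denotes the concentration required for 50% inhibition of growth.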 Activity calls are given as the source filed them. Cut-off read from the data, not from the text of the source: active = GI50 up to about 1.1 µM and inactive = higher.

Tests used:
Test in all cases: DTP human tumour cell line panel, 48 h
786-0 = tested on: 786-0
A498 = tested on: A498
A549 = tested on: A549
ACHN = tested on: ACHN
CAKI-1 = tested on: CAKI-1
CCRF-CEM = tested on: CCRF-CEM
COLO 205 = tested on: COLO 205
DLD-1 = tested on: DLD-1
DMS-114 = tested on: DMS-114
DMS-273 = tested on: DMS-273
EKVX = tested on: EKVX
HCC 2998 = tested on: HCC 2998
HCT-116 = tested on: HCT-116
HCT-15 = tested on: HCT-15
HL-60 = tested on: HL-60
HOP-18 = tested on: HOP-18
HOP-62 = tested on: HOP-62
HOP-92 = tested on: HOP-92
HT-29 = tested on: HT-29
IGROV-1 = tested on: IGROV-1
K562 = tested on: K562
KM-20L2 = tested on: KM-20L2
KM12 = tested on: KM12
LOX IMVI = tested on: LOX IMVI
LXFL 529 = tested on: LXFL 529
M14 = tested on: M14
M19-MEL = tested on: M19-MEL
MOLT-4 = tested on: MOLT-4
Malme-3M = tested on: Malme-3M
NCI-H226 = tested on: NCI-H226
NCI-H23 = tested on: NCI-H23
NCI-H460 = tested on: NCI-H460
NCI-H522 = tested on: NCI-H522
OVCAR-3 = tested on: OVCAR-3
OVCAR-4 = tested on: OVCAR-4
OVCAR-5 = tested on: OVCAR-5
OVCAR-8 = tested on: OVCAR-8
RPMI-8226 = tested on: RPMI-8226
RXF 393 = tested on: RXF 393
SF-268 = tested on: SF-268
SF-295 = tested on: SF-295
SF-539 = tested on: SF-539
SK-MEL-28 = tested on: SK-MEL-28
SK-MEL-2 = tested on: SK-MEL-2
SK-MEL-5 = tested on: SK-MEL-5
SK-OV-3 = tested on: SK-OV-3
SN12C = tested on: SN12C
SNB-19 = tested on: SNB-19
SNB-75 = tested on: SNB-75
SR = tested on: SR
SW-620 = tested on: SW-620
TK-10 = tested on: TK-10
U-251 = tested on: U-251
UACC-257 = tested on: UACC-257
UACC-62 = tested on: UACC-62
UO-31 = tested on: UO-31
XF498 = tested on: XF498
SNB-78 = tested on: SNB-78

Cc1ccc(S(=O)(=O)OCC/C(=C\[Si](C)(C)C)c2ccccc2)cc1
GI50 (786-0): > 100 µM (inactive)
GI50 (A498): > 100 µM (inactive)
GI50 (A549): > 100 µM (inactive)
GI50 (ACHN): > 100 µM (inactive)
GI50 (CAKI-1): > 100 µM (inactive)
GI50 (CCRF-CEM): > 100 µM (inactive)
GI50 (COLO 205): > 100 µM (inactive)
GI50 (DLD-1): > 100 µM (inactive)
GI50 (DMS-114): > 100 µM (inactive)
GI50 (DMS-273): > 100 µM (inactive)
GI50 (EKVX): > 100 µM (inactive)
GI50 (HCC 2998): > 100 µM (inactive)
GI50 (HCT-116): > 100 µM (inactive)
GI50 (HCT-15): > 100 µM
GI50 (HL-60): 91 µM (inactive)
GI50 (HOP-18): > 100 µM (inactive)
GI50 (HOP-62): > 100 µM (inactive)
GI50 (HOP-92): > 100 µM (inactive)
GI50 (HT-29): > 100 µM (inactive)
GI50 (IGROV-1): > 100 µM (inactive)
GI50 (K562): > 100 µM (inactive)
GI50 (KM-20L2): > 100 µM (inactive)
GI50 (KM12): > 100 µM (inactive)
GI50 (LOX IMVI): > 100 µM (inactive)
GI50 (LXFL 529): > 100 µM (inactive)
GI50 (M14): > 100 µM (inactive)
GI50 (M19-MEL): > 100 µM (inactive)
GI50 (MOLT-4): > 100 µM (inactive)
GI50 (Malme-3M): > 100 µM (inactive)
GI50 (NCI-H226): > 100 µM (inactive)
GI50 (NCI-H23): > 100 µM (inactive)
GI50 (NCI-H460): > 100 µM (inactive)
GI50 (NCI-H522): > 100 µM (inactive)
GI50 (OVCAR-3): > 100 µM (inactive)
GI50 (OVCAR-4): > 100 µM (inactive)
GI50 (OVCAR-5): > 100 µM (inactive)
GI50 (OVCAR-8): > 100 µM (inactive)
GI50 (RPMI-8226): > 100 µM (inactive)
GI50 (RXF 393): > 100 µM (inactive)
GI50 (SF-268): > 100 µM (inactive)
GI50 (SF-295): > 100 µM (inactive)
GI50 (SF-539): > 100 µM (inactive)
GI50 (SK-MEL-28): > 100 µM (inactive)
GI50 (SK-MEL-2): > 100 µM (inactive)
GI50 (SK-MEL-5): > 100 µM (inactive)
GI50 (SK-OV-3): > 100 µM (inactive)
GI50 (SN12C): > 100 µM (inactive)
GI50 (SNB-19): > 100 µM (inactive)
GI50 (SNB-75): > 100 µM (inactive)
GI50 (SR): 24 µM (inactive)
GI50 (SW-620): > 100 µM (inactive)
GI50 (TK-10): > 100 µM (inactive)
GI50 (U-251): > 100 µM (inactive)
GI50 (UACC-257): > 100 µM (inactive)
GI50 (UACC-62): > 100 µM (inactive)
GI50 (UO-31): > 100 µM (inactive)
GI50 (XF498): > 100 µM (inactive)

Cc1n[nH]c(N)c1C(N)=O
GI50 (A498): > 100 µM (inactive)
GI50 (A549): > 100 µM (inactive)
GI50 (ACHN): > 100 µM (inactive)
GI50 (CAKI-1): > 100 µM (inactive)
GI50 (CCRF-CEM): > 100 µM (inactive)
GI50 (COLO 205): > 100 µM (inactive)
GI50 (DLD-1): > 100 µM (inactive)
GI50 (DMS-114): > 100 µM (inactive)
GI50 (DMS-273): > 100 µM (inactive)
GI50 (EKVX): > 100 µM (inactive)
GI50 (HCC 2998): > 100 µM (inactive)
GI50 (HCT-15): > 100 µM
GI50 (HL-60): > 100 µM (inactive)
GI50 (HOP-18): < 0.01 µM (active)
GI50 (HT-29): > 100 µM (inactive)
GI50 (IGROV-1): > 100 µM (inactive)
GI50 (K562): > 100 µM (inactive)
GI50 (KM-20L2): > 100 µM (inactive)
GI50 (KM12): > 100 µM (inactive)
GI50 (LOX IMVI): > 100 µM (inactive)
GI50 (LXFL 529): > 100 µM (inactive)
GI50 (M14): > 100 µM (inactive)
GI50 (MOLT-4): > 100 µM (inactive)
GI50 (Malme-3M): > 100 µM (inactive)
GI50 (NCI-H23): > 100 µM (inactive)
GI50 (NCI-H522): > 100 µM (inactive)
GI50 (OVCAR-4): > 100 µM (inactive)
GI50 (OVCAR-5): > 100 µM (inactive)
GI50 (OVCAR-8): > 100 µM (inactive)
GI50 (RPMI-8226): > 100 µM (inactive)
GI50 (RXF 393): 21.5 µM (inactive)
GI50 (SF-268): > 100 µM (inactive)
GI50 (SF-295): > 100 µM (inactive)
GI50 (SF-539): > 100 µM (inactive)
GI50 (SK-MEL-28): > 100 µM (inactive)
GI50 (SK-MEL-2): > 100 µM (inactive)
GI50 (SK-MEL-5): > 100 µM (inactive)
GI50 (SK-OV-3): > 100 µM (inactive)
GI50 (SN12C): > 100 µM (inactive)
GI50 (SNB-19): > 100 µM (inactive)
GI50 (SNB-75): > 100 µM (inactive)
GI50 (SNB-78): > 100 µM (inactive)
GI50 (SW-620): > 100 µM (inactive)
GI50 (TK-10): > 100 µM (inactive)
GI50 (U-251): > 10 µM (inactive)
GI50 (UACC-257): > 100 µM (inactive)
GI50 (UACC-62): > 100 µM (inactive)
GI50 (UO-31): > 100 µM (inactive)
GI50 (XF498): > 100 µM (inactive)
